{"source": "patent US20040120926A1", "about": "“Reactive oxygen metabolite inhibitors for use in compositions and methods of treatment” (priority 1999, published 2004)", "key": {"[1]": {"test_system": "T-cells (CD3ε+) and NK-cells (CD56+)", "experiment": "IL-2-induced CD69 expression on T-cells and NK-cells incubated with or without MO (flow cytometry)", "type": "cell-based, human", "method": "FIG. 1 is a graph showing the protection of CD3ε+ T-cells against oxidative inhibition by DPI. Lymphocytes and MO were recovered from peripheral blood as described herein. A mixture of MO and lymphocytes was treated with culture medium (control, open circles) or IL-2 (100 U/ml; filled circles) for 16 hrs. After incubation, lymphocytes were labeled with antibodies to CD3ε and CD69. […] Similar results were obtained when CD69 expression was examined in CD56+. NK-cells incubated with MO: 29.5% (control) or 79.0% (DPI 1000 nM) of NK-cells acquired the CD69 antigen in response to IL-2. […] The results are representative of three similar experiments.\n(§1) Peripheral venous blood was obtained as freshly prepared leukopacks from healthy blood donors at the Blood Centre, Sahlgren's Hospital, Goteborg, Sweden, to study the activation characteristics of cytotoxic lymphocytes in the presence and absence of MO, and ROM inhibitors. The blood (65 ml) was mixed with 92.5 ml Iscove's medium, 35 ml 6% Dextran (Kabi Pharmacia, Stockholm, Sweden) and 7.5 ml acid citrate dextrose (ACD) (Baxter, Deerfield, Ill.). After incubation for 15 minutes at room temperature, the supernatant was carefully layered onto Ficoll-Hypaque (Lymphoprep, Myegaard, Norway). Mononuclear cells (MNC) were collected at the interface after centrifugation at 380 g for 15 minutes at room temperature, washed twice in PBS and resuspended in Iscove's medium supplemented with 10% human AB+serum. During all further separation of cells, the cell suspensions were kept in siliconized test tubes (Vacuette, Greiner, Stockholm).\nThe MNC were further separated into lymphocyte and monocyte (MO) populations using the counter-current centrifugal elutriation (CCE) technique originally described by Yasaka and co-workers (Yasaka, T. et al., J. Immunol., 127:1515) with modifications as described in Hansson, M., et al. (J. Immunol., 156: 42 (1996); hereby incorporated by reference). Briefly, the MNC were resuspended in elutration buffer containing 0.05% BSA and 0.015% EDTA in buffered NaCl and fed into a Beckman J2-21 ultracentrifuge with a JE-6B rotor at 2100 rpm. A fraction with >90% MO was obtained at a flow rate of 18 ml/min. A lymphocyte fraction enriched for NK-cells (CD3^−/56^+ phenotype) and T-cells (CD3^+/56^−) was recovered at flow rates of 14-15 ml/min. This fraction contained <3% MO and consisted of CD3,^−/56^+ NK-cells (45-50%), CD3,^+/56^− T-cells (35-40%), CD3,^−/56^− cells (5-10%), and CD3,^+/56^+ cells (1-5%), as judged by flow cytometry. In some experiments, dynabeads (Dynal A/S, Oslo, Norway) coated with anti-CD56 were used to obtain purified lymphocyte preparations of T-cells, as described in detail by Hansson, M., et al., incorporated above.\nFlow cytometry was used in the experiments described below to identify the various sub-populations of T-cells. Flow cytometry permits an investigator to examine a population of cells using a number of labeled probes to differentiate sub-populations within the larger whole. In these experiments, the CD3 marker was used to identify the sub-population of T-cells and the CD4 and CD8 markers were used to further identify the sub-population of T-cells into T helper cells and CTLs. The effects of MO exposure in the presence and absence of histamine and T-cell activation compounds were determined using the CD69 T-cell activation marker. The expression of the different markers was estimated in a lymphocyte gate using flow cytometry (as described in Hellstrand, K., et al. Cell. Immunol. 138: 44-54 (1991), and hereby incorporated by reference).\nThe following protocol was used in experiments reporting the detection of surface antigens of cell populations. One million cells were incubated with appropriate fluorescein isothiocynate (FITC) and phycoerythrin (PE) conjugated monoclonal antibodies (Becton & Dickinson, Stockholm, Sweden; 1:1/10^6 cells), on ice for 30 minutes. […]"}, "[2]": {"test_system": "elutriated MO (monocytes/macrophages)", "experiment": "Chemiluminescence assay of spontaneous isoluminol-enhanced extracellular superoxide anion generation in elutriated MO", "type": "cell-based, human", "method": "as §1, with “Stockholm). […]” for “Stockholm).”\nTo assess whether DPI and histamine inhibited the spontaneous release of ROM from MO, a chemiluminescence assay was performed that specifically quantified extracellular ROM (superoxide anion). The spontaneous isoluminol-enhanced extracellular generation of superoxide anion in elutriated MO was measured using the assay described in Hellstrand, K., et al., J Immunol, 153:4940-4947 (1994) and in Lundqvist & Dahlgren, Free Radic. […]"}, "T-cells and NK-cells": {"test_system": "T-cells and NK-cells", "experiment": "MO-induced apoptosis in T-cells and NK-cells (flow cytometry, reduced forward and increased right angle scatter)", "type": "cell-based, human", "details": "lymphocytes with MO, DPI 100 nM, Fas:Fc-IgG 20 μg/ml"}, "mouse sarcoma (MCG)": {"test_system": "mouse sarcoma (MCG)", "experiment": "In vivo tumor growth of subcutaneously inoculated mouse sarcoma (MCG)", "set-up": "species or system C57/b16 mice", "details": "for Mean Tumor Weight: control .941", "method": "The following in vivo study was conducted to determine DPI's effectiveness in inhibiting tumor growth rate. C57/b16 mice were subcutaneously inoculated with mouse sarcoma (MCG) on Day 1. The mice were then subcutaneously injected once daily for Days 1-9 with either NaCl or DPI. There were 5 different treatment groups, including the control group that received NaCl. The other four treatment groups were administered DPI subcutaneously at dosages of either 1 mg/kg, 10 mg/kg, 50 mg/kg, or 100 mg/kg. On Day 9, the mice were killed and tumor size and weight was measured. The resulting tumor weights are provided below in Table 2."}, "[3]": {"experiment": "Scavenging of superoxide anion", "details": "200 U/ml"}}}
{"molecule": "Catalase [reference compound]", "values": [{"measurement": "MO-induced inhibition of IL-2-induced CD69 expression in T-cells and NK-cells", "setting": "[1]; catalase at concentrations exceeding 50 U/ml", "value": "significantly reversed"}]}
{"molecule": "NCCc1c[nH]cn1", "note": "[histamine, reference compound]", "values": [{"measurement": "inhibition of the concentration of extracellular superoxide anion", "setting": "[2]; histamine at 50 μM", "value": "more than five-fold"}]}
{"molecule": "c1ccc([I+]c2ccccc2)cc1", "note": "[DPI, diphenyliodonium]", "values": [{"measurement": "reduction of released extracellular superoxide anion", "setting": "[2]; DPI 10 nM, MO from three blood donors", "value": "more than four fold reduction"}, {"measurement": "NK-cells that acquired the CD69 antigen in response to IL-2", "setting": "[1]; CD56+ NK-cells incubated with MO, DPI 1000 nM, IL-2 100 U/ml, 16 hrs, control 29.5%", "value": 79.0, "unit": "%"}, {"measurement": "MO-induced inhibition of T-cells and NK-cells (IL-2-induced CD69)", "setting": "[1]; DPI, lymphocytes with MO, IL-2 100 U/ml, 16 hours", "value": "significantly reversed"}, {"measurement": "IL-2-induced expression of CD69 in T-cells or NK-cells", "setting": "[1]; incubated in the absence of MO", "value": "did not increase"}, {"measurement": "viable CD56+/69+ (gated events)", "setting": "[1]; lymphocytes with MO, DPI 100 nM, Fas:Fc-IgG 20 μg/ml, control 36", "value": 1248, "unit": "gated events"}, {"measurement": "viable CD3+/CD69+ (gated events)", "setting": "[1]; lymphocytes with MO, DPI 100 nM, Fas:Fc-IgG 20 μg/ml, control 89", "value": 701, "unit": "gated events"}, {"measurement": "apoptotic CD3+/CD69+(%)", "setting": "T-cells and NK-cells; control 52", "value": 7, "unit": "%"}, {"measurement": "apoptotic CD56+/CD69+(%)", "setting": "T-cells and NK-cells; control 71", "value": 13, "unit": "%"}, {"measurement": "Mean Tumor Weight", "setting": "mouse sarcoma (MCG); 1 mg/kg s.c. once daily Days 1-9, Day 9", "value": 1.107, "unit": "gms"}, {"measurement": "Mean Tumor Weight", "setting": "mouse sarcoma (MCG); 10 mg/kg s.c. once daily Days 1-9, Day 9", "value": ".643 gms"}, {"measurement": "Mean Tumor Weight", "setting": "mouse sarcoma (MCG); 50 mg/kg s.c. once daily Days 1-9, Day 9", "value": ".638 gms"}, {"measurement": "Mean Tumor Weight", "setting": "mouse sarcoma (MCG); 100 mg/kg s.c. once daily Days 1-9, Day 9", "value": ".473 gms"}, {"measurement": "effect on tumor growth rate in vivo", "setting": "mouse sarcoma (MCG); 1, 10, 50, 100 mg/kg s.c. once daily Days 1-9", "value": "dose dependent inhibiting effect"}]}
{"molecule": "superoxide dismutase [reference compound]", "values": [{"measurement": "MO-induced inhibition of IL-2-induced CD69 expression in T-cells and NK-cells", "setting": "[1]; superoxide dismutase 200 U/ml", "value": "ineffective"}, {"measurement": "superoxide anion scavenged", "setting": "[3]", "value": "> 90", "unit": "%"}]}
